# Results: ChEMBL document CHEMBL3576778, “Structure-Activity Relationship Studies of a Series of Semisynthetic Lipopeptides Leading to the Discovery of Surotomycin, a Novel Cyclic Lipopeptide Being Developed for the Treatment of Clostridium difficile-Associated Diarrhea” (J Med Chem, 2015)
# What was measured:
# Format in all cases: functional
# Staphylococcus aureus [1] = assay: Antimicrobial activity against daptomycin-non-susceptible Staphylococcus aureus 5076 incubated anaerobically at 37 degC for 48 hrs by agar dilution method; conditions: Staphylococcus aureus, 5076, 48 h
# Staphylococcus aureus [2] = assay: Antimicrobial activity against daptomycin-non-susceptible Staphylococcus aureus 5016 incubated anaerobically at 37 degC for 48 hrs by agar dilution method; conditions: Staphylococcus aureus, 5016, 48 h
# Staphylococcus aureus [3] = assay: Antimicrobial activity against daptomycin-non-susceptible Staphylococcus aureus 5014 incubated anaerobically at 37 degC for 48 hrs by agar dilution method; conditions: Staphylococcus aureus, 5014, 48 h
# Staphylococcus aureus [4] = assay: Potency index, ratio of MIC for daptomycin to MIC for test compound against daptomycin-non-susceptible Staphylococcus aureus 1616 incubated anaerobically at 37 degC for 48 hrs by agar dilution method
# Staphylococcus aureus [5] = assay: Antimicrobial activity against daptomycin-non-susceptible Staphylococcus aureus 5010 incubated anaerobically at 37 degC for 48 hrs by agar dilution method; conditions: Staphylococcus aureus, 5010, 48 h
# Enterococcus faecium = assay: Potency index, ratio of MIC for daptomycin to MIC for test compound against Enterococcus faecium ATCC 6569 incubated anaerobically at 37 degC for 48 hrs by agar dilution method
# Staphylococcus aureus [6] = assay: Antimicrobial activity against daptomycin-non-susceptible Staphylococcus aureus 1326 incubated anaerobically at 37 degC for 48 hrs by agar dilution method; conditions: Staphylococcus aureus, 1326, 48 h
# Staphylococcus aureus [7] = assay: Antimicrobial activity against daptomycin-non-susceptible Staphylococcus aureus 42 incubated anaerobically at 37 degC for 48 hrs by agar dilution method; conditions: Staphylococcus aureus, 42, 48 h
# Staphylococcus aureus [8] = assay: Potency index, ratio of MIC for daptomycin to MIC for test compound against daptomycin-non-susceptible Staphylococcus aureus 5060 incubated anaerobically at 37 degC for 48 hrs by agar dilution method
# Clostridioides difficile [9] = assay: Antimicrobial activity against daptomycin-resistant Clostridium difficile ATCC 43596 infected in Syrian golden hamster model of Clostridium difficile-associated diarrhea assessed as protection against microbial infection by measuring survival at day 25 to 26 at 0.5 mg/kg treated once daily for 5 consecutive days starting 4 hrs after spore inoculation
# Staphylococcus aureus [10] = assay: Antimicrobial activity against daptomycin-non-susceptible Staphylococcus aureus 1145 incubated anaerobically at 37 degC for 48 hrs by agar dilution method; conditions: Staphylococcus aureus, 1145, 48 h
# Staphylococcus aureus [11] = assay: Potency index, ratio of MIC for daptomycin to MIC for test compound against daptomycin-non-susceptible Staphylococcus aureus 399 incubated anaerobically at 37 degC for 48 hrs by agar dilution method
# Staphylococcus aureus [12] = assay: Antimicrobial activity against daptomycin-non-susceptible Staphylococcus aureus 5060 incubated anaerobically at 37 degC for 48 hrs by agar dilution method; conditions: Staphylococcus aureus, 5060, 48 h
# Prevotella sp. = assay: Toxicity against Prevotella spp. assessed as inhibition of microbe growth
# Staphylococcus aureus [13] = assay: Potency index, ratio of MIC for daptomycin to MIC for test compound against daptomycin-non-susceptible Staphylococcus aureus 5081 incubated anaerobically at 37 degC for 48 hrs by agar dilution method
# Staphylococcus aureus [14] = assay: Potency index, ratio of MIC for daptomycin to MIC for test compound against daptomycin-non-susceptible Staphylococcus aureus 5014 incubated anaerobically at 37 degC for 48 hrs by agar dilution method
# Staphylococcus aureus [15] = assay: Potency index, ratio of MIC for daptomycin to MIC for test compound against daptomycin-non-susceptible Staphylococcus aureus 1146 incubated anaerobically at 37 degC for 48 hrs by agar dilution method
# Staphylococcus aureus [16] = assay: Potency index, ratio of MIC for daptomycin to MIC for test compound against daptomycin-non-susceptible Staphylococcus aureus 5006 incubated anaerobically at 37 degC for 48 hrs by agar dilution method
# Staphylococcus aureus [17] = assay: Antimicrobial activity against daptomycin-non-susceptible Staphylococcus aureus 5003 incubated anaerobically at 37 degC for 48 hrs by agar dilution method; conditions: Staphylococcus aureus, 5003, 48 h
# Staphylococcus aureus [18] = assay: Antimicrobial activity against daptomycin-non-susceptible Staphylococcus aureus 5017 incubated anaerobically at 37 degC for 48 hrs by agar dilution method; conditions: Staphylococcus aureus, 5017, 48 h
# Staphylococcus aureus [19] = assay: Potency index, ratio of MIC for daptomycin to MIC for test compound against daptomycin-non-susceptible Staphylococcus aureus 5010 incubated anaerobically at 37 degC for 48 hrs by agar dilution method
# Staphylococcus aureus [20] = assay: Antimicrobial activity against daptomycin-non-susceptible Staphylococcus aureus 5080 incubated anaerobically at 37 degC for 48 hrs by agar dilution method; conditions: Staphylococcus aureus, 5080, 48 h
# Clostridioides difficile [21] = assay: Antimicrobial activity against vancomycin-resistant Clostridium difficile
# Staphylococcus aureus [22] = assay: Antimicrobial activity against daptomycin-non-susceptible Staphylococcus aureus 5081 incubated anaerobically at 37 degC for 48 hrs by agar dilution method; conditions: Staphylococcus aureus, 5081, 48 h
# Staphylococcus aureus [23] = assay: Potency index, ratio of MIC for daptomycin to MIC for test compound against daptomycin-non-susceptible Staphylococcus aureus 5033 incubated anaerobically at 37 degC for 48 hrs by agar dilution method
# Staphylococcus aureus [24] = assay: Potency index, ratio of MIC for daptomycin to MIC for test compound against daptomycin-non-susceptible Staphylococcus aureus 5012 incubated anaerobically at 37 degC for 48 hrs by agar dilution method
# Clostridioides difficile [25] = assay: Potency index, ratio of MIC for daptomycin to MIC for test compound against daptomycin-resistant Clostridium difficile NAP1 incubated anaerobically at 37 degC for 48 hrs by agar dilution method
# Staphylococcus aureus [26] = assay: Potency index, ratio of MIC for daptomycin to MIC for test compound against daptomycin-non-susceptible Staphylococcus aureus 5059 incubated anaerobically at 37 degC for 48 hrs by agar dilution method
# Staphylococcus aureus [27] = assay: Antimicrobial activity against daptomycin-non-susceptible Staphylococcus aureus 278 incubated anaerobically at 37 degC for 48 hrs by agar dilution method; conditions: Staphylococcus aureus, 278, 48 h
# Staphylococcus aureus [28] = assay: Antimicrobial activity against daptomycin-non-susceptible Staphylococcus aureus 5004 incubated anaerobically at 37 degC for 48 hrs by agar dilution method; conditions: Staphylococcus aureus, 5004, 48 h
# Enterococcus faecalis = assay: Antimicrobial activity against daptomycin-resistant Enterococcus faecalis ATCC 49452 incubated anaerobically at 37 degC for 48 hrs by agar dilution method; conditions: ATCC 49452, 48 h
# Staphylococcus aureus [29] = assay: Potency index, ratio of MIC for daptomycin to MIC for test compound against daptomycin-non-susceptible Staphylococcus aureus 5076 incubated anaerobically at 37 degC for 48 hrs by agar dilution method
# Staphylococcus aureus [30] = assay: Potency index, ratio of MIC for daptomycin to MIC for test compound against daptomycin-non-susceptible Staphylococcus aureus 1179 incubated anaerobically at 37 degC for 48 hrs by agar dilution method
# Staphylococcus aureus [31] = assay: Antimicrobial activity against daptomycin-non-susceptible Staphylococcus aureus 5059 incubated anaerobically at 37 degC for 48 hrs by agar dilution method; conditions: Staphylococcus aureus, 5059, 48 h
# Staphylococcus aureus [32] = assay: Antimicrobial activity against daptomycin-susceptible Staphylococcus aureus ATCC 29213 incubated anaerobically at 37 degC for 48 hrs by agar dilution method; conditions: ATCC 29213, 48 h
# Staphylococcus aureus [33] = assay: Antimicrobial activity against daptomycin-non-susceptible Staphylococcus aureus 5008 incubated anaerobically at 37 degC for 48 hrs by agar dilution method; conditions: Staphylococcus aureus, 5008, 48 h
# Clostridioides difficile [34] = assay: Antimicrobial activity against metronidazole-resistant Clostridium difficile
structure (smiles),measurement,setting,value
CCCCCc1ccc(/C(C)=C/C(=O)N[C@@H](Cc2c[nH]c3ccccc23)C(=O)N[C@H](CC(N)=O)C(=O)N[C@@H](CC(=O)O)C(=O)N[C@@H]2C(=O)NCC(=O)N[C@@H](CCCN)C(=O)N[C@@H](CC(=O)O)C(=O)N[C@H](C)C(=O)N[C@@H](CC(=O)O)C(=O)NCC(=O)N[C@H](CO)C(=O)N[C@@H]([C@@H](C)CC(=O)O)C(=O)N[C@@H](CC(=O)c3ccccc3N)C(=O)O[C@@H]2C)cc1,MIC,Staphylococcus aureus [1],0.5 µg/mL
same,MIC,Staphylococcus aureus [2],0.5 µg/mL
same,MIC,Staphylococcus aureus [3],0.25 µg/mL
same,Ratio,Staphylococcus aureus [4],2
same,MIC,Staphylococcus aureus [5],0.25 µg/mL
same,Ratio,Enterococcus faecium,>8
same,MIC,Staphylococcus aureus [6],0.5 µg/mL
same,MIC,Staphylococcus aureus [7],0.125 µg/mL
same,Ratio,Staphylococcus aureus [8],2
same,survival at 0.5 mg/kg,Clostridioides difficile [9],100%
same,MIC,Staphylococcus aureus [10],0.25 µg/mL
same,Ratio,Staphylococcus aureus [11],2
same,MIC,Staphylococcus aureus [12],1 µg/mL
same,MIC,Prevotella sp.,≥ 8190 µg/mL
same,Ratio,Staphylococcus aureus [13],2
same,Ratio,Staphylococcus aureus [14],2
same,Ratio,Staphylococcus aureus [15],2
same,Ratio,Staphylococcus aureus [16],2
same,MIC,Staphylococcus aureus [17],0.25 µg/mL
same,MIC,Staphylococcus aureus [18],0.5 µg/mL
same,Ratio,Staphylococcus aureus [19],2
same,MIC,Staphylococcus aureus [20],1 µg/mL
same,MIC,Clostridioides difficile [21],0.125 µg/mL
same,MIC,Staphylococcus aureus [22],1 µg/mL
same,Ratio,Staphylococcus aureus [23],2
same,Ratio,Staphylococcus aureus [24],2
same,Ratio,Clostridioides difficile [25],4
same,Ratio,Staphylococcus aureus [26],2
same,MIC,Staphylococcus aureus [27],1 µg/mL
same,MIC,Staphylococcus aureus [28],0.25 µg/mL
same,MIC,Enterococcus faecalis,4 µg/mL
same,Ratio,Staphylococcus aureus [29],2
same,Ratio,Staphylococcus aureus [30],2
same,MIC,Staphylococcus aureus [31],1 µg/mL
same,MIC,Staphylococcus aureus [32],0.25 µg/mL
same,MIC,Staphylococcus aureus [33],0.5 µg/mL
same,MIC,Clostridioides difficile [34],0.5 µg/mL
